Data taken from US9956233B2 (priority 2015, dated 2018).

Key:
[1] = test system: primary dopaminergic neurons; test: MPP+ toxicity in primary mesencephalic neuronal cultures, TH+ neurite length; assay type: cell-based; conditions: 10 μM, 24 h
Procedure: Primary […] neurons were treated with 10 μM MPP+ alone or co-treated with 100-300 nM mito-Met for 24 h. […] FIG. 7B depicts quantification of neurite length of TH+ neurons.
Primary mesencephalic neuronal cultures were treated for 24 h with 10 μM MPP^+ alone or co-treated with 100 and 300 nM mito-Met, dopaminergic neurotoxicity was assessed by TH immunocytochemistry (FIG. 7A) and quantification of neurite length of TH^+ neurons (FIG. 7B). MPP^+ reduced the neurite length of TH-immunoreactive neurons to almost 45% of the vehicle-treated group, indicating significant dopaminergic neurotoxicity.

Tfam = Tfam protein and mRNA expression; conditions: N27 cells, 10-100 μM, 24 h
AMPK = AMPK activation, phosphorylation at T172; assay type: cell-based; conditions: N27 cells, 10-100 μM, 24 h
Source text: In this example we assessed whether mito-Met alters mitochondrial biogenesis in a dopaminergic cell model.

[2] = diabetic patients; cited from earlier work
[3] = test system: complex I in the mitochondrial respiratory chain; conditions: cited from earlier work

Row | Compound | neurite length of TH-immunoreactive neurons, of the vehicle-treated group [1] [%] | protein levels of Tfam (Tfam) | phosphorylation of AMPK Thr172 (AMPK) | tolerated daily doses [2] | effect on mitochondrial complex-1 activity ([3]; at approximately 0.1 mM) | inhibition of complex I in the mitochondrial respiratory chain ([3]; in vitro, millimolar concentrations)
1 | C[n+]1ccc(-c2ccccc2)cc1 [MPP^+] | ~45 | – | – | – | – | –
2 | CN(C)C(=N)N=C(N)N [metformin, Metformin] | – | upregulated | significantly increased | 2-3 grams | does not affect | inhibit
